Experimental findings from PubChem BioAssay (NCI) are described below.

Some test systems named below: OVCAR-8 ovarian; A498 renal; KM12 colon; A549 NSCLC; HCT-116 colon; PC-3 prostate; ACHN renal; MDA-MB-231 breast; UACC-257 melanoma; BT-549 breast; RXF 393 renal; DU-145 prostate; UO-31 renal; OVCAR-4 ovarian; RPMI-8226 leukemia; HS 578T breast; SK-MEL-5 melanoma; SK-OV-3 ovarian; EKVX NSCLC; M14 melanoma.
Holding throughout (experiment): inhibition of tumour cell growth, NCI panel, 48 h

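A five-concentration, 48-hour dose response in 96-well plates underlies each endpoint, interpolated linearly between surrounding concentrations. TGI: concentration producing complete growth inhibition.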

Regarding `O=S(=O)(NC1OCCCC1I)c1ccccc1` (stereo unspecified), the TGI with OVCAR-8 ovarian, in the experiment with A498 renal, in the experiment on KM12 colon, with A549 NSCLC, in the experiment with HCT-116 colon and in the experiment with PC-3 prostate was above 100 µM in each case. The TGI with ACHN renal, in the experiment with MDA-MB-231 breast, with UACC-257 melanoma, in the experiment with BT-549 breast, in the experiment on RXF 393 renal and in the experiment with DU-145 prostate was above 100 µM each time. The TGI with UO-31 renal, with OVCAR-4 ovarian, in the experiment with RPMI-8226 leukemia, in the experiment on HS 578T breast, with SK-MEL-5 melanoma and with SK-OV-3 ovarian was above 100 µM in each case. The compound also gave a TGI in the experiment with EKVX NSCLC above 100 µM.
With `COc1cccc(NC(=O)CC(=O)N2N=C(C)C(N=Nc3ccc(S(=O)(=O)CCOS(=O)(=O)O)cc3)C2=O)c1` (stereo unspecified), the TGI turned out to be 15.5 µM with OVCAR-8 ovarian; 22.7 µM in the experiment with A498 renal; 36 µM in the experiment on KM12 colon; 41.1 µM with A549 NSCLC; 13 µM in the experiment on HCT-116 colon; 14.5 µM in the experiment on PC-3 prostate. Further, the TGI with ACHN renal stood at 15.7 µM; in the experiment with MDA-MB-231 breast, 25.6 µM; in the experiment on UACC-257 melanoma it was 23 µM; in the experiment on BT-549 breast it was 14.5 µM; in the experiment on RXF 393 renal, 15.9 µM; in the experiment with M14 melanoma it was 20.2 µM. The TGI in the experiment on DU-145 prostate was 29.6 µM; with UO-31 renal, 24.5 µM; in the experiment with OVCAR-4 ovarian, 62.5 µM; with RPMI-8226 leukemia, 21 µM; in the experiment on HS 578T breast, 88 µM; in the experiment on SK-MEL-5 melanoma it was 13.3 µM. Further, the TGI in the experiment with EKVX NSCLC is 31.9 µM.
With `Clc1ccc(C=NC23CC4CC(CC(C4)C2)C3)cc1Cl`, the TGI in the experiment on OVCAR-8 ovarian, with A498 renal, in the experiment with KM12 colon, in the experiment on A549 NSCLC, in the experiment with HCT-116 colon and in the experiment with PC-3 prostate was above 10 µM each time. Besides, the TGI in the experiment on ACHN renal, in the experiment on MDA-MB-231 breast, in the experiment with UACC-257 melanoma, with BT-549 breast, with RXF 393 renal and in the experiment on M14 melanoma was above 10 µM in each case. For the same compound, the TGI with DU-145 prostate, with OVCAR-4 ovarian, in the experiment on RPMI-8226 leukemia, with HS 578T breast, with SK-MEL-5 melanoma and in the experiment with SK-OV-3 ovarian was above 10 µM each time. In addition, in the experiment on EKVX NSCLC, the TGI was above 10 µM.
For `CC(/C=N\NC(=S)N(C)C)=N/NC(=S)N(C)C`, the TGI in the experiment on OVCAR-8 ovarian was above 100 µM; with A498 renal, 20.1 µM; with KM12 colon it was above 60.9 µM; with A549 NSCLC, above 100 µM; with HCT-116 colon, 31.4 µM; in the experiment on PC-3 prostate, above 100 µM. The TGI was above 100 µM in the experiment on MDA-MB-231 breast; above 100 µM in the experiment with UACC-257 melanoma; above 47.7 µM in the experiment on BT-549 breast; 2.58 µM in the experiment on RXF 393 renal; above 54.1 µM with M14 melanoma; above 100 µM in the experiment on DU-145 prostate. Also, the TGI is above 39.2 µM in the experiment on UO-31 renal; above 100 µM in the experiment on OVCAR-4 ovarian; above 100 µM in the experiment with RPMI-8226 leukemia; 52.8 µM in the experiment on HS 578T breast; 14.1 µM with SK-MEL-5 melanoma; above 51.9 µM in the experiment with SK-OV-3 ovarian. Besides, in the experiment with EKVX NSCLC, the TGI is above 100 µM.
Turning to `CC(=O)Oc1cc(C)c(OC(C)=O)c2c1[C@H]1CC[C@]3(C)[C@@H](OC(C)=O)CC[C@H]3[C@@H]1CC2`, the TGI is 44.7 µM with OVCAR-8 ovarian; 32.8 µM in the experiment on A498 renal; 28.6 µM in the experiment on KM12 colon; 34.4 µM in the experiment on A549 NSCLC; 30.2 µM in the experiment with HCT-116 colon; 26.9 µM in the experiment with PC-3 prostate. Moreover, the TGI with ACHN renal was 27.7 µM; with MDA-MB-231 breast it was 32.7 µM; in the experiment on UACC-257 melanoma, 30 µM; in the experiment on BT-549 breast, 30.7 µM; in the experiment with RXF 393 renal, 33.9 µM; with M14 melanoma, 30.2 µM. In addition, the TGI in the experiment with DU-145 prostate was found to be 31.5 µM; with UO-31 renal it was 28.7 µM; in the experiment on RPMI-8226 leukemia, 59.2 µM; in the experiment on HS 578T breast, 57 µM; in the experiment with SK-MEL-5 melanoma, 31.3 µM; with EKVX NSCLC, 26.4 µM.
With `Nc1nc(NCC2(CO)CCC2)cc(=O)[nH]1`, the TGI with OVCAR-8 ovarian, with A498 renal, in the experiment with KM12 colon, with A549 NSCLC, in the experiment with HCT-116 colon and with PC-3 prostate was above 100 µM each time. In addition, the TGI in the experiment on MDA-MB-231 breast, in the experiment on UACC-257 melanoma, in the experiment on BT-549 breast, in the experiment with RXF 393 renal, with M14 melanoma and in the experiment with DU-145 prostate was above 100 µM in each case. The TGI with UO-31 renal, with OVCAR-4 ovarian, with RPMI-8226 leukemia, in the experiment with HS 578T breast, with SK-MEL-5 melanoma and in the experiment with SK-OV-3 ovarian was above 100 µM throughout. In addition, in the experiment with EKVX NSCLC, the TGI is above 100 µM.
As to `CCCCCCCCCCCCCCCC(=O)OC(COC(C)=O)CO[P+](=O)O` (stereo unspecified), the TGI in the experiment on OVCAR-8 ovarian was 44.4 µM; in the experiment on A498 renal, above 100 µM; in the experiment on KM12 colon, 48.4 µM; with A549 NSCLC, 36.5 µM; in the experiment on PC-3 prostate it was above 100 µM; in the experiment on ACHN renal, 92.8 µM. Further, the TGI is 50.5 µM with MDA-MB-231 breast; above 100 µM in the experiment with UACC-257 melanoma; above 100 µM in the experiment with BT-549 breast; above 100 µM in the experiment with RXF 393 renal; 28.4 µM with M14 melanoma; above 100 µM in the experiment with DU-145 prostate. Besides, the TGI in the experiment with UO-31 renal is 97.1 µM; in the experiment with OVCAR-4 ovarian it was above 100 µM; with RPMI-8226 leukemia, above 100 µM; in the experiment on HS 578T breast it was 36.6 µM; in the experiment with SK-MEL-5 melanoma, above 100 µM; in the experiment on EKVX NSCLC, above 100 µM.
Consider `COc1cc2ccc1OCc1cccc(n1)COc1ccc(cc1OC)C=Nc1ccc(cc1)-c1ccc(cc1)N=C2`, for which the TGI in the experiment on OVCAR-8 ovarian, in the experiment with A498 renal, in the experiment with KM12 colon, in the experiment on A549 NSCLC, with HCT-116 colon and in the experiment on PC-3 prostate was above 100 µM throughout. Besides, the TGI in the experiment with ACHN renal, with MDA-MB-231 breast, in the experiment on UACC-257 melanoma, with BT-549 breast, in the experiment on RXF 393 renal and in the experiment on M14 melanoma was above 100 µM each time. For the same compound, the TGI with DU-145 prostate, in the experiment with UO-31 renal, in the experiment with OVCAR-4 ovarian, with HS 578T breast, in the experiment with SK-MEL-5 melanoma and in the experiment on SK-OV-3 ovarian was above 100 µM each time. This compound also returned a TGI in the experiment with EKVX NSCLC above 100 µM.
Take `CCN(CC)c1ccc2cc(C(=O)Nc3nc(C45CC6CC(CC(C6)C4)C5)cs3)c(=O)oc2c1`: the TGI with OVCAR-8 ovarian, in the experiment on A498 renal, in the experiment with KM12 colon, in the experiment with A549 NSCLC, in the experiment with HCT-116 colon and in the experiment with PC-3 prostate was above 100 µM each time. Further, the TGI with ACHN renal, in the experiment with MDA-MB-231 breast, in the experiment on UACC-257 melanoma, in the experiment with BT-549 breast, with RXF 393 renal and with DU-145 prostate was above 100 µM in each case. Besides, the TGI with UO-31 renal, with OVCAR-4 ovarian, in the experiment on RPMI-8226 leukemia, with HS 578T breast, in the experiment on SK-MEL-5 melanoma and with EKVX NSCLC was above 100 µM in each case.
As to `O=C(O)c1cc(O)c2c(c1)C([C@@H]1c3cccc(O)c3C(=O)c3c(O)cc(C(=O)O)cc31)c1cccc(O)c1C2=O` (stereo partly specified), the TGI was above 100 µM in the experiment on OVCAR-8 ovarian; 69.3 µM in the experiment on A498 renal; 44.3 µM with KM12 colon; above 100 µM with A549 NSCLC; 38.1 µM in the experiment with HCT-116 colon; above 100 µM in the experiment with PC-3 prostate. Besides, the TGI in the experiment on ACHN renal was above 100 µM; in the experiment with MDA-MB-231 breast, 95.8 µM; with UACC-257 melanoma it was above 100 µM; with BT-549 breast, above 100 µM; with RXF 393 renal it was 85 µM; in the experiment with DU-145 prostate it was above 100 µM. The TGI in the experiment on UO-31 renal was above 100 µM; with OVCAR-4 ovarian it was above 100 µM; in the experiment with RPMI-8226 leukemia it was above 100 µM; in the experiment on HS 578T breast, 69.4 µM; in the experiment on SK-MEL-5 melanoma it was 32.2 µM; in the experiment with SK-OV-3 ovarian, above 100 µM. The compound also yielded a TGI with EKVX NSCLC above 100 µM.
Turning to `CNC(=O)CNC(=O)C(Cc1ccc(NC(=O)CCCCC(C)=O)cc1)NC(=O)C(CCC(=O)OCc1ccccc1)NC(=O)OC(C)(C)C` (stereo unspecified), the TGI in the experiment on OVCAR-8 ovarian, with A498 renal, in the experiment on KM12 colon, in the experiment with A549 NSCLC, in the experiment with HCT-116 colon and in the experiment on PC-3 prostate was above 100 µM in each case. The TGI in the experiment on ACHN renal, in the experiment with MDA-MB-231 breast, in the experiment with BT-549 breast, in the experiment with RXF 393 renal, in the experiment on M14 melanoma and in the experiment with DU-145 prostate was above 100 µM each time. In addition, the TGI with UO-31 renal, in the experiment on OVCAR-4 ovarian, in the experiment with RPMI-8226 leukemia, in the experiment with HS 578T breast, in the experiment with SK-MEL-5 melanoma and in the experiment with SK-OV-3 ovarian was above 100 µM throughout. For the same compound, the TGI in the experiment on EKVX NSCLC is above 100 µM.
